Our source for the inhibition values is patent publication US8680159B2, “Bradykinin 1 receptor modulating compounds” (Gruenenthal GmbH, priority 2010, dated 2014).

A word on the inhibition: it is the change of the read-out against control, counted positive when it falls.

In the first assay the target is T1, B1R receptor of the rat (CHO K1 cells stably transfected with the B1R gene of the rat) (Rattus norvegicus, UniProt P97583).
T1 construct: expressed in transfected cells; host or cells: CHO K1 cells (Chinese hamster ovary), stably transfected
T1 sequence (P97583 1-337): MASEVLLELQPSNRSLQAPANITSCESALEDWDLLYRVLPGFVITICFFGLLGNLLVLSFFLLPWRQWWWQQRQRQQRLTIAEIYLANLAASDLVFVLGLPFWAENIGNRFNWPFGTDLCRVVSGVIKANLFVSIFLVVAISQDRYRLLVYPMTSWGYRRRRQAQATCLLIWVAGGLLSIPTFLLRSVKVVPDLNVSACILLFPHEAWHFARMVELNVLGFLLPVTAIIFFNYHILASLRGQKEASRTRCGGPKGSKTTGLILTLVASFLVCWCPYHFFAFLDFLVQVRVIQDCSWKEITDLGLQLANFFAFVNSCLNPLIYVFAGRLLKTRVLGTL
The experiment in a line: Functional study on the bradykinin receptor 1 (B1R), Ca2+ fluorescence (Fluo-4) FLIPR/Novostar assay, rB1R cells. The following applies: CHO-K1, 10 μM, library compounds CC_H, read-out: % Inhibition (r-B1R) at 10 μM. It counts as cell-based. In outline: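 Test compounds (10 μM) were added first and the Ca2+ rise was scored as % activation against Lys-Des-Arg9-bradykinin (≥50 nM, human) or Des-Arg9-bradykinin (≥1 μM, rat). After 6-20 min, the matching agonist was given at its EC80, and % inhibition relative to maximal achievable inhibition was calculated.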
For `CN(C(=O)c1ccc2c(c1)C(NC(=O)c1ccccc1Cl)CC2)C1CCN(c2ccnc(N3CCCC3)n2)CC1` (centres unmarked) [CC_H-612, 3-[(2-Chloro-benzoyl)amino]-N-methyl-N-[1-(2-pyrrolidin-1-yl-pyrimidin-4-yl)-piperidin-4-yl]-2,3-dihydro-1H-indene-5-carboxylic acid amide], the inhibition at 10 µM came to 101%.

With `CN(C(=O)c1ccc2c(c1)C(NC(=O)c1cccnc1C(F)(F)F)CC2)C1CCN(c2ccnc(C3CC3)n2)CC1` (centres unmarked) [CC_H-610, N-[6-[[1-(2-Cyclopropyl-pyrimidin-4-yl)-piperidin-4-yl]-methyl-carbamoyl]-2,3-dihydro-1H-inden-1-yl]-2-(trifluoromethyl)-pyridine-3-carboxylic acid amide], the inhibition at 10 µM was 101%.

On to `CN(C(=O)c1ccc2c(c1)C(NC(=O)CCC1CCCC1)CC2)C1CCN(c2ccnc(C(C)(C)C)n2)CC1` (centres unmarked) [CC_H-624, N-[1-(2-tert-Butyl-pyrimidin-4-yl)-piperidin-4-yl]-3-(3-cyclopentyl-propanoylamino)-N-methyl-2,3-dihydro-1H-indene-5-carboxylic acid amide], for which the inhibition at 10 µM is 96%.

Still in this assay, the particulars now being: CHO-K1, 10 μM, read-out: % Inhibition (r-B1R) at 10 μM.
Consider `CN(C(=O)c1ccc2c(c1)C(NC(=O)Nc1cccc(Cl)c1Cl)CCO2)C1CCN(c2ccncc2)CC1` (centres unmarked) [CC_H-282, 4-[[(2,3-Dichloro-phenyl)-carbamoyl]amino]-N-methyl-N-(1-pyridin-4-yl-piperidin-4-yl)-3,4-dihydro-2H-chromene-6-carboxylic acid amide], for which the inhibition at 10 µM came out at 102%.

For `Cc1cc(N2CCC(N(C)C(=O)c3ccc4c(c3)C(NC(=O)CC(C)C)CC4)CC2)cc(C)n1` (centres unmarked) [CC_H-318, N-[1-(2,6-Dimethyl-pyridin-4-yl)-piperidin-4-yl]-N-methyl-3-(3-methyl-butanoylamino)-2,3-dihydro-1H-indene-5-carboxylic acid amide], the inhibition at 10 µM amounted to 111%.

With `CN(C(=O)c1ccc2c(c1)C(N(C)C(=O)Nc1cccc(Cl)c1)CC2)C1CCN(c2ccncc2)CC1` (centres unmarked) [CC_H-218, 3-[[(3-Chlorophenyl)-carbamoyl]-methyl-amino]-N-methyl-N-(1-pyridin-4-yl-piperidin-4-yl)-2,3-dihydro-1H-indene-5-carboxylic acid amide], the inhibition at 10 µM was found to be 109%.

Consider `CN(C(=O)c1ccc2c(c1)C(NC(=O)Nc1ccc(F)c(Cl)c1)CC2(C)C)C1CCN(c2ccncc2)CC1` (centres unmarked) [CC_H-242, 3-[[(3-Chloro-4-fluoro-phenyl)-carbamoyl]amino]-N,1,1-trimethyl-N-(1-pyridin-4-yl-piperidin-4-yl)-2,3-dihydro-indene-5-carboxylic acid amide], for which the inhibition at 10 µM came out at 52%.

Take `CN(C(=O)NC1CCc2ccc(C(=O)N(C)C3CCN(c4ccc5cnccc5c4)CC3)cc21)c1ccc(Cl)cc1Cl` (centres unmarked) [CC_H-376, 3-[[(2,4-Dichlorophenyl)-methyl-carbamoyl]amino]-N-(1-isoquinolin-6-yl-piperidin-4-yl)-N-methyl-2,3-dihydro-1H-indene-5-carboxylic acid amide]: the inhibition at 10 µM turned out to be 77%.

Consider `CN(C(=O)c1ccc2c(c1)C(NC(=O)Nc1cc(C(F)(F)F)ccc1Cl)CCO2)C1CCN(c2ccncc2)CC1` (centres unmarked) [CC_H-285, 4-[[[2-Chloro-5-(trifluoromethyl)-phenyl]-carbamoyl]amino]-N-methyl-N-(1-pyridin-4-yl-piperidin-4-yl)-3,4-dihydro-2H-chromene-6-carboxylic acid amide], for which the inhibition at 10 µM is 75%.

As for `CN(C(=O)c1ccc2c(c1)C(NC(=O)Nc1cc(Cl)ccc1Cl)CCO2)C1CCN(c2ccncc2)CC1` (centres unmarked) [CC_H-283, 4-[[(2,5-Dichloro-phenyl)-carbamoyl]amino]-N-methyl-N-(1-pyridin-4-yl-piperidin-4-yl)-3,4-dihydro-2H-chromene-6-carboxylic acid amide], the inhibition at 10 µM worked out at 106%.

In the case of `CN(C(=O)c1ccc2c(c1)C(NC(=O)Nc1ccc(F)c(Cl)c1)CCO2)C1CCN(c2ccncc2)CC1` (centres unmarked) [CC_H-289, 4-[[(3-Chloro-4-fluoro-phenyl)-carbamoyl]amino]-N-methyl-N-(1-pyridin-4-yl-piperidin-4-yl)-3,4-dihydro-2H-chromene-6-carboxylic acid amide], the inhibition at 10 µM was determined as 77%.

On to `Cc1cc(N2CCC(N(C)C(=O)c3ccc4c(c3)C(N(C)C(=O)c3cc(Cl)ccc3Cl)CC4)CC2)cc(C)n1` (centres unmarked) [CC_H-328, 3-[(2,5-Dichloro-benzoyl)-methyl-amino]-N-[1-(2,6-dimethyl-pyridin-4-yl)-piperidin-4-yl]-N-methyl-2,3-dihydro-1H-indene-5-carboxylic acid amide], for which the inhibition at 10 µM was 111%.

Consider `CCCC(=O)NC1CCc2ccc(C(=O)N(C)C3CCN(c4ccc5cnccc5c4)CC3)cc21` (centres unmarked) [CC_H-380, 3-(Butanoylamino)-N-(1-isoquinolin-6-yl-piperidin-4-yl)-N-methyl-2,3-dihydro-1H-indene-5-carboxylic acid amide], for which the inhibition at 10 µM came out at 103%.

With `CN(C(=O)c1ccc2c(c1)C(NC(=O)c1cc(C(F)(F)F)ccc1Cl)CCC2)C1CCN(c2ccncc2)CC1` (centres unmarked) [CC_H-247, 8-[[2-Chloro-5-(trifluoromethyl)-benzoyl]amino]-N-methyl-N-(1-pyridin-4-yl-piperidin-4-yl)-5,6,7,8-tetrahydro-naphthalene-2-carboxylic acid amide], the inhibition at 10 µM came to 112%.

As to `CN(C(=O)c1ccc2c(c1)C(NC(=O)Nc1c(Cl)cccc1Cl)CC2)C1CCN(c2ccc3cnccc3c2)CC1` (centres unmarked) [CC_H-366, 3-[[(2,6-Dichloro-phenyl)-carbamoyl]amino]-N-(1-isoquinolin-6-yl-piperidin-4-yl)-N-methyl-2,3-dihydro-1H-indene-5-carboxylic acid amide], the inhibition at 10 µM is 92%.

Consider `CN(C(=O)c1ccc2c(c1)C(NC(=O)CC(C)(C)C)CC2(C)C)C1CCN(c2ccncc2)CC1` (centres unmarked) [CC_H-227, 3-(3,3-Dimethyl-butanoylamino)-N,1,1-trimethyl-N-(1-pyridin-4-yl-piperidin-4-yl)-2,3-dihydro-indene-5-carboxylic acid amide], for which the inhibition at 10 µM was 112%.

Regarding `CN(C(=O)c1ccc2c(c1)C(NC(=O)c1cc(C(F)(F)F)ccc1Cl)CC2)C1CCN(c2ccc3cnccc3c2)CC1` (centres unmarked) [CC_H-357, 3-[[2-Chloro-5-(trifluoromethyl)-benzoyl]amino]-N-(1-isoquinolin-6-yl-piperidin-4-yl)-N-methyl-2,3-dihydro-1H-indene-5-carboxylic acid amide], the inhibition at 10 µM was 110%.

Consider `CN(C(=O)c1ccc2c(c1)C(N(C)C(=O)c1cc(Cl)ccc1Cl)CC2)C1CCN(c2ccncc2)CC1` (centres unmarked) [CC_H-210, 3-[(2,5-Dichloro-benzoyl)-methyl-amino]-N-methyl-N-(1-pyridin-4-yl-piperidin-4-yl)-2,3-dihydro-1H-indene-5-carboxylic acid amide], for which the inhibition at 10 µM was found to be 112%.

For `CC(=O)NC1CC(C)(C)c2ccc(C(=O)N(C)C3CCN(c4ccncc4)CC3)cc21` (centres unmarked) [CC_H-229, 3-Acetylamino-N,1,1-trimethyl-N-(1-pyridin-4-yl-piperidin-4-yl)-2,3-dihydro-indene-5-carboxylic acid amide], the inhibition at 10 µM was 104%.

On to `CN(C(=O)c1ccc2c(c1)C(NC(=O)C1CC1)CC2)C1CCN(c2ccc3cnccc3c2)CC1` (centres unmarked) [CC_H-361, 3-(Cyclopropanecarbonylamino)-N-(1-isoquinolin-6-yl-piperidin-4-yl)-N-methyl-2,3-dihydro-1H-indene-5-carboxylic acid amide], for which the inhibition at 10 µM came out at 110%.
